Experiments:
GCN2 kinase = GCN2 kinase (Homo sapiens (Human), UniProt Q9P2K8); assay: GCN2 Enzyme Inhibition Assay (Transcreener ADP2 fluorescence polarization); type: biochemical; details: 280 μM ATP, 200 μM (RS)7 peptide, 4 nM GCN2, 25° C.; for Ki: Ki(app)
In short: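 At 25 °C, GCN2 kinase (typical final concentration 4 nM) and (RS)7 peptide in Tris-HCl pH 7.5 buffer with MgCl2, NaCl and DTT were preincubated with compound for 10 min, then ATP was added for a 1 h reaction. ADP was read by FP with antibody/Alexa633 tracer. Non-linear tight-binding analysis gave IC50 and apparent Ki.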

[1] = target: intracellular GCN2 (phosphorylation of the GCN2 substrate eIF2α) (Homo sapiens (Human), UniProt Q9P2K8); assay: GCN2 Cellular Inhibition Assay (AlphaScreen SureFire P-eIF2α Ser51, borrelidin-treated U2OS cells); type: cell-based; details: 10 μM borrelidin, 1 h, phosphorylated eIF2α Ser51, read-out: GCN2 Biomarker (IC50)
Chain of intracellular GCN2 (phosphorylation of the GCN2 substrate eIF2α) (Q9P2K8 whole entry): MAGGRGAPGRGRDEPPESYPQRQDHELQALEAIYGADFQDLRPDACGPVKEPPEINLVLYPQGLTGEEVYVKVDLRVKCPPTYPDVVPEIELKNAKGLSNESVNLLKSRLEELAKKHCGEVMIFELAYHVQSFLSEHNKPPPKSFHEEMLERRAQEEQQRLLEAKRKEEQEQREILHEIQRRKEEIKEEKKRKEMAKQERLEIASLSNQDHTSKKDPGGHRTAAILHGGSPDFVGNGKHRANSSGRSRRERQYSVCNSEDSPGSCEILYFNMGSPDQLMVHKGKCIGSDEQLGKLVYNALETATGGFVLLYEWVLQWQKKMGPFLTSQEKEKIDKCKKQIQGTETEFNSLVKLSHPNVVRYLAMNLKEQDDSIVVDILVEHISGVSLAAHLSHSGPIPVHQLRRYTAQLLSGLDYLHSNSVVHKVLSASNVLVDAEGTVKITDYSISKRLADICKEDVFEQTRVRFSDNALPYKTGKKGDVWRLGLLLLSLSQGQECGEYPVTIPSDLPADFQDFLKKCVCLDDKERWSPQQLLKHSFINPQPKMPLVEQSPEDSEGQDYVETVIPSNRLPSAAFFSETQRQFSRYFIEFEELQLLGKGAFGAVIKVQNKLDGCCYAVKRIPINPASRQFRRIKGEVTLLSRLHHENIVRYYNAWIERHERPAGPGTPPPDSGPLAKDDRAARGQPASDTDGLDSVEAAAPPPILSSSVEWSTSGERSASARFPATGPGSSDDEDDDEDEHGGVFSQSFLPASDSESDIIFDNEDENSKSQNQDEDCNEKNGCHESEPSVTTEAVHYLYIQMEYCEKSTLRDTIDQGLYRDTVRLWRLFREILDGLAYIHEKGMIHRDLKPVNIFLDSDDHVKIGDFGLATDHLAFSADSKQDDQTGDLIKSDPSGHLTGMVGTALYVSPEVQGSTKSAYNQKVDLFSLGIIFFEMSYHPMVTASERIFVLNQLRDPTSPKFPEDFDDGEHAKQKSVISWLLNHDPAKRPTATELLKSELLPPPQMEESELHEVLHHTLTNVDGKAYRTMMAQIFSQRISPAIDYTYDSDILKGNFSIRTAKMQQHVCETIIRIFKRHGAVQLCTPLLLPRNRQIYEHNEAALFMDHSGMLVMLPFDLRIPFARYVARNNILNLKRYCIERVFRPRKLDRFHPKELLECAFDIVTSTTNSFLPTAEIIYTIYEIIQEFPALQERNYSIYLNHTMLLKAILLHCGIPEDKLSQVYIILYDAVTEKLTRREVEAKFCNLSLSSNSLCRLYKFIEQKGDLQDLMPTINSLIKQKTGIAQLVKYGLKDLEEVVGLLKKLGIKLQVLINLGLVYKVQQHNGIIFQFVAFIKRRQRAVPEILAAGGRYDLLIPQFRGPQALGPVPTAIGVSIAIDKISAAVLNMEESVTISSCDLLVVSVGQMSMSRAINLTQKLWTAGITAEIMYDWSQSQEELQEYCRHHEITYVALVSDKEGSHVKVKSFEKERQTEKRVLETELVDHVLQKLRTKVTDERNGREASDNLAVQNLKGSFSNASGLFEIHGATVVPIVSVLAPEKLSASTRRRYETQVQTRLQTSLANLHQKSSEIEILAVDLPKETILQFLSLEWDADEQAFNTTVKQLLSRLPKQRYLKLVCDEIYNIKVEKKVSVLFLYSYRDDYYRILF
In short: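 Phospho-eIF2α (Ser51) measured by AlphaScreen SureFire in lysates of U2OS cells stimulated 1 h at 37 °C with 10 μM borrelidin alongside compound, 4-fold dilutions from 40 μM. Inhibition expressed as percent relative to borrelidin-alone controls.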

Chain of GCN2 kinase (Q9P2K8 whole entry): as above

Row | Compound | IC50 (GCN2 kinase) | IC50 [1] | Ki (GCN2 kinase)
1 | CC(C)n1ccc(C(=O)N2[C@H](C)CN(c3ccnc(-c4cnc5ccc(C(F)(F)F)cn45)n3)C[C@@H]2C)n1 [I-401, (cis-2,6-dimethyl-4-(2-(6-(trifluoromethyl)imidazo[12-a]pyridin-3-yl)pyrimidin-4-yl)piperazin-1-yl)(1-isopropyl-1H-pyrazol-3-yl)methanone] | 100 to 1000 nM | 500 to 5000 nM | 
2 | Cc1oncc1[C@H]1CN(c2ccnc(-c3cnc4ccc(C(F)(F)F)cn34)n2)C[C@@H](C)O1 [I-347, (2R,6S)-2-methyl-6-(5-methylisoxazol-4-yl)-4-(2-(6-(trifluoromethyl)imidazo[1,2-a]pyridin-3-yl)pyrimidin-4-yl)morpholine] | 100 to 1000 nM | 500 to 5000 nM | 
3 | Cc1noc([C@@H]2CN(c3ccnc(-c4cnc5ccc(Cl)cn45)n3)C[C@H](C)O2)n1 [I-62] |  | 500 to 5000 nM | 10 to 100 nM
4 | CP(C)(=O)C1CC(c2cn[nH]c2)CN(c2ccnc(-c3cnc4ccc(Cl)cn34)n2)C1 (stereo not shown) [I-29, 6-Chloro-3-[4-[3-dimethylphosphoryl-5-(1H-pyrazol-4-yl)-1-piperidyl]pyrimidin-2-yl]imidazo[1,2-a]pyridine] |  | > 5000 nM | < 10 nM
5 | NC(=O)[C@H]1CN(c2ccnc(-c3cnc4ccc(Cl)cn34)n2)CCN1C1CC1 [I-349, (R)-4-(2-(6-chloroimidazo[1,2-a]pyridin-3-yl)pyrimidin-4-yl)-1-cyclopropylpiperazine-2-carboxamide] | 10 to 100 nM | 500 to 5000 nM | 
6 | C[C@H](NS(C)(=O)=O)[C@H]1[C@@H](C)N(c2ccnc(-c3cnc4ccc(C(F)(F)F)cn34)n2)CCN1C1CC1 [I-507, N—((S)-1-((2R,3R)-1-cyclopropyl-3-methyl-4-(2-(6-(trifluoromethyl)imidazo[1,2-a]pyridin-3-yl)pyrimidin-4-yl)piperazin-2-yl)ethyl)methanesulfonamide] | 100 to 1000 nM | 500 to 5000 nM | 
7 | O=C1NC[C@@]12CCCN(c1ccnc(-c3cnc4ccc(C(F)(F)F)cn34)n1)C2 [I-295, (R)-6-(2-(6-(trifluoromethyl)imidazo[1,2-a]pyridin-3-yl)pyrimidin-4-yl)-2,6-diazaspiro[3.5]nonan-1-one] | 10 to 100 nM | 500 to 5000 nM | 
8 | Clc1ccc2ncc(-c3ncnc(N4CCOC(c5cn[nH]c5)C4)n3)n2c1 (stereo not shown) [I-22, 4-[4-(6-Chloroimidazo[1,2-a]pyridin-3-yl)-1,3,5-triazin-2-yl]-2-(1H-pyrazol-4-yl)morpholine] |  | < 500 nM | < 10 nM
9 | Cc1ncc(CN2CCN(c3ccnc(-c4cnc5ccc(C(F)(F)F)cn45)n3)CC2c2cn[nH]c2)[nH]1 (stereo not shown) [I-372, 3-(4-(4-((2-methyl-1H-imidazol-5-yl)methyl)-3-(1H-pyrazol-4-yl)piperazin-1-yl)pyrimidin-2-yl)-6-(trifluoromethyl)imidazo[1,2-a]pyridine] | < 10 nM | 500 to 5000 nM | 
10 | FC(F)(F)c1ccc2ncc(-c3nccc(N4CCN(CC5C6COCC65)C(c5cn[nH]c5)C4)n3)n2c1 (stereo not shown) [I-370, 3-(4-(4-((3-oxabicyclo[3.1.0]hexan-6-yl)methyl)-3-(1H-pyrazol-4-yl)piperazin-1-yl)pyrimidin-2-yl)-6-(trifluoromethyl)imidazo[1,2-a]pyridine] | < 10 nM | < 500 nM | 
11 | C[C@H]1CN(c2nccc(-c3cnc4ccc(Cl)cn34)n2)C[C@H](c2cn[nH]c2)O1 [I-246, (2S,6S)-4-(4-(6-chloroimidazo[1,2-a]pyridin-3-yl)pyrimidin-2-yl)-2-methyl-6-(1H-pyrazol-4-yl)morpholine] | 10 to 100 nM | 500 to 5000 nM | 
12 | Cc1[nH]ncc1[C@@H]1C[C@@H](O)CN(c2ccnc(-c3cnc4ccc(C(F)(F)F)cn34)n2)C1 [I-308, (3R,5S)-5-(5-methyl-1H-pyrazol-4-yl)-1-(2-(6-(trifluoromethyl)imidazo[1,2-a]pyridin-3-yl)pyrimidin-4-yl)piperidin-3-ol] | 10 to 100 nM | 500 to 5000 nM | 
13 | C[C@H]1[C@H](c2cn[nH]c2)N(C2COC2)CCN1c1ccnc(-c2cnc3ccc(C(F)(F)F)cn23)n1 [I-364, 3-(4-((2S,3 S)-2-methyl-4-(oxetan-3-yl)-3-(1H-pyrazol-4-yl)piperazin-1-yl)pyrimidin-2-yl)-6-(trifluoromethyl)imidazo[1,2-a]pyridine] | 100 to 1000 nM | > 5000 nM | 
14 | O=C(O)C1(C2CCCN(c3ccnc(-c4cnc5ccc(Cl)cn45)n3)C2)CC1 (stereo not shown) [I-297, 1-(1-(2-(6-chloroimidazo[1,2-a]pyridin-3-yl)pyrimidin-4-yl)piperidin-3-yl)cyclopropane-1-carboxylic acid] | 10 to 100 nM | 500 to 5000 nM | 
15 | CC1C(CNS(C)(=O)=O)N(C2COC2)CCN1c1ccnc(-c2cnc3ccc(C(F)F)cn23)n1 (stereo not shown) [I-530, N-((4-(2-(6-(difluoromethyl)imidazo[1,2-a]pyridin-3-yl)pyrimidin-4-yl)-3-methyl-1-(oxetan-3-yl)piperazin-2-yl)methyl)methanesulfonamide] | 10 to 100 nM | 500 to 5000 nM | 
16 | FC(F)(F)c1ccc2ncc(-c3nccc(N4CCCC(n5ccc(C(F)(F)F)n5)C4)n3)n2c1 (stereo not shown) [I-355, 6-(trifluoromethyl)-3-(4-(3-(3-(trifluoromethyl)-1H-pyrazol-1-yl)piperidin-1-yl)pyrimidin-2-yl)imidazo[1,2-a]pyridine] | 100 to 1000 nM | 500 to 5000 nM | 
17 | CS(=O)(=O)NC[C@@H]1CN(c2ccnc(-c3cnc4ccc(C(F)F)cn34)n2)CCO1 [I-13, N-[[(2S)-4-[2-[6-(Difluoromethyl)imidazo[1,2-a]pyridin-3-yl]pyrimidin-4-yl]morpholin-2-yl]methyl]methanesulfonamide] |  | 500 to 5000 nM | < 10 nM
18 | FC(F)C1CN(c2ccnc(-c3cnc4ccc(C(F)(F)F)cn34)n2)CCO1 (stereo not shown) [I-225, 2-(difluoromethyl)-4-(2-(6-(trifluoromethyl)imidazo[12-a]pyridin-3-yl)pyrimidin-4-yl)morpholine] | 100 to 1000 nM | 500 to 5000 nM | 
19 | CC(C)(C)OC(=O)N1CC2(CCCN(c3ccnc(-c4cnc5ccc(C(F)(F)F)cn45)n3)C2)C1 [I-387, tert-butyl 6-(2-(6-(trifluoromethyl)imidazo[1,2-a]pyridin-3-yl)pyrimidin-4-yl)-2,6-diazaspiro[3.5]nonane-2-carboxylate] | 100 to 1000 nM | 500 to 5000 nM | 
20 | FC(F)(F)c1ccc2ncc(-c3nccc(N4CCN[C@@H](c5cn[nH]c5)C4)n3)n2c1 [I-533, (S)-3-(4-(3-(1H-pyrazol-4-yl)piperazin-1-yl)pyrimidin-2-yl)-6-(trifluoromethyl)imidazo[1,2-a]pyridine] | < 10 nM | < 500 nM | 
21 | O=C(c1cocn1)N1CCN(c2ccnc(-c3cnc4ccc(C(F)(F)F)cn34)n2)CC1c1cn[nH]c1 (stereo not shown) [I-443, (2-(1H-pyrazol-4-yl)-4-(2-(6-(trifluoromethyl)imidazo[1,2-a]pyridin-3-yl)pyrimidin-4-yl)piperazin-1-yl)(oxazol-4-yl)methanone] | 10 to 100 nM | 500 to 5000 nM | 
22 | Cc1noc([C@H]2CN(c3ccnc(-c4cnc5ccc(C#N)cn45)n3)C[C@@H](C)O2)n1 [I-92, 3-{4-[(2R,6R)-2-methyl-6-(3-methyl-1,2,4-oxadiazol-5-yl)morpholin-4-yl]pyrimidin-2-yl}imidazo[1,2-a]pyridine-6-carbonitrile] |  | 500 to 5000 nM | < 10 nM
23 | C[C@H]1[C@@H](c2cn[nH]c2)N(C2COC2)CCN1c1ccnc(-c2cnc3ccc(C(F)(F)F)cn23)n1 [I-361, 3-(4-((2S,3R)-2-methyl-4-(oxetan-3-yl)-3-(1H-pyrazol-4-yl)piperazin-1-yl)pyrimidin-2-yl)-6-(trifluoromethyl)imidazo[1,2-a]pyridine] | 10 to 100 nM | 500 to 5000 nM | 
24 | Cc1cc(-c2cnc3ccc(Cl)cn23)nc(N2C[C@@H](C)C[C@@H](c3cn[nH]c3)C2)n1 [I-208, 6-chloro-3-(6-methyl-2-((3S,5S)-3-methyl-5-(1H-pyrazol-4-yl)piperidin-1-yl)pyrimidin-4-yl)imidazo[1,2-a]pyridine] | 10 to 100 nM | < 500 nM | 
25 | CC1CC(CS(C)(=N)=O)C(C)N(c2ccnc(-c3cnc4ccc(Cl)cn34)n2)C1 (stereo not shown) [I-46, ((1-(2-(6-Chloroimidazo[1,2-a]pyridin-3-yl)pyrimidin-4-yl)-2,5-dimethylpiperidin-3-yl)methyl)(imino)(methyl)-λ^6-sulfanone] |  | 500 to 5000 nM | 10 to 100 nM
26 | Clc1ccc2ncc(-c3nccc(N4CCOC(c5cn[nH]c5)C4)n3)n2c1 (stereo not shown) [I-20, 4-[2-(6-Chloroimidazo[1,2-a]pyridin-3-yl)pyrimidin-4-yl]-2-(1H-pyrazol-4-yl)morpholine] |  | < 500 nM | < 10 nM
27 | Cc1[nH]ncc1[C@@H]1CN(c2nccc(-c3cnc4ccc(Cl)cn34)n2)C[C@@H](C)O1 (stereo in doubt) [I-182, (2R,6R)-4-(4-(6-chloroimidazo[1,2-a]pyridin-3-yl)pyrimidin-2-yl)-2-methyl-6-(5-methyl-1H-pyrazol-4-yl)morpholine] | 10 to 100 nM | < 500 nM | 
28 | Cc1[nH]ncc1C1CN(c2ccnc(-c3cnc4ccc(Cl)cn34)n2)CC(C)N1S(C)(=O)=O (stereo not shown) [I-268, 6-chloro-3-(4-(3-methyl-5-(5-methyl-1H-pyrazol-4-yl)-4-(methylsulfonyl)piperazin-1-yl)pyrimidin-2-yl)imidazo[1,2-a]pyridine] | < 10 nM | 500 to 5000 nM | 
29 | CC(NS(C)(=O)=O)C1CN(c2ccnc(-c3cnc4ccc(C(F)(F)F)cn34)n2)CCO1 (stereo not shown) [I-327, N-(1-(4-(2-(6-(trifluoromethyl)imidazo[1,2-a]pyridin-3-yl)pyrimidin-4-yl)morpholin-2-yl)ethyl)methanesulfonamide] | 10 to 100 nM | 500 to 5000 nM | 

Reference: patent publication US10793563B2, “GCN2 inhibitors and uses thereof” (Merck Patent GmbH, priority 2018, dated 2020)
